This passage reports CC50 results from ChEMBL document CHEMBL5303711, “ECBD screening data for assay EOS300108” (2023).

Where a name gives a salt, the structure may show the parent alone. The source made the active and inactive calls. How the calls were made is not given here.

A short description of this series: Cytotoxicity activity against human HepG2 cells assessed by CellTiter-Glo luminescent cell viability assay. The class given is toxicity, cell-based. The arrangement: assay stage confirmatory assay, source tissue liver. As to conditions: HepG2 cells, read-out: IC50 relative.

Take `CNC(=O)[C@@H](c1ccccc1)N1CCc2cc(OC)c(OC)cc2[C@@H]1CCc1ccc(C(F)(F)F)cc1` [ALMOREXANT]: the CC50 was 20.4 µM (inactive).

Turning to `Cc1nc(NC(=O)N2CCC[C@H]2C(N)=O)sc1-c1ccnc(C(C)(C)C(F)(F)F)c1` [ALPELISIB], the CC50 was 6.1 µM (active).

As for `O=C(Nc1cc(Oc2cc(F)c(NC(=O)C3(C(=O)Nc4ccc(F)cc4)CC3)cc2F)ccn1)C1CC1` [ALTIRATINIB], the CC50 is 0.2 µM (active).

As to `Cc1csc(-c2nnc(Nc3ccc(Oc4ncccc4-c4ccnc(N)n4)cc3)c3ccccc23)c1` [AMG-900], the CC50 is 25.4 µM (inactive).

In the case of `Nc1nc(N)c2nc(CNc3ccc(C(=O)N[C@@H](CCC(=O)O)C(=O)O)cc3)cnc2n1` [AMINOPTERIN], the CC50 was 0.1 µM (active).

For `CCN(CC)Cc1cc(Nc2ccnc3cc(Cl)ccc23)ccc1O` [AMODIAQUINE HYDROCHLORIDE], the CC50 was 3 µM (active).

With `COc1cc(NS(C)(=O)=O)ccc1Nc1c2ccccc2nc2ccccc12` [AMSACRINE], the CC50 is 2.7 µM (active).

With `COc1ccc(C[C@H]2NC[C@H](O)[C@H]2OC(C)=O)cc1` [ANISOMYCIN], the CC50 is 0.3 µM (active).

On to `Cc1c(CN2CCN(C(=O)[C@H](C)O)CC2)sc2c(N3CCOCC3)nc(-c3cnc(N)nc3)nc12` [APITOLISIB], for which the CC50 was 1.5 µM (active).

Consider `C[C@@H](O[C@H]1OCCN(Cc2n[nH]c(=O)[nH]2)[C@H]1c1ccc(F)cc1)c1cc(C(F)(F)F)cc(C(F)(F)F)c1` [APREPITANT], for which the CC50 was 14.8 µM (inactive).

In the case of `NCC(=O)Nc1ccc(-n2nc(C(F)(F)F)cc2-c2ccc3c(ccc4ccccc43)c2)cc1` [AR-12], the CC50 is 50 µM (inactive).

`COc1cc(C[C@H]2C(=O)OC[C@@H]2Cc2ccc(OC)c(OC)c2)ccc1O` [ARCTIGENIN]: the CC50 is 2.6 µM (active).

As for `O=C1CCc2ccc(OCCCCN3CCN(c4cccc(Cl)c4Cl)CC3)cc2N1` [ARIPIPRAZOLE], the CC50 was 25.6 µM (inactive).

As to `COc1ccc(CCN2CCC(Nc3nc4ccccc4n3Cc3ccc(F)cc3)CC2)cc1` [ASTEMIZOLE], the CC50 was 1.5 µM (active).

`O=C(NC1CCNCC1)c1n[nH]cc1NC(=O)c1c(Cl)cccc1Cl` [AT-7519]: the CC50 was 0.2 µM (active).

Take `O=C(Nc1c[nH]nc1-c1nc2cc(CN3CCOCC3)ccc2[nH]1)NC1CC1` [AT-9283]: the CC50 is 1.2 µM (active).

Consider `N#Cc1ccc2[nH]c(O)c(-c3ccc(CN4CCOCC4)cn3)c2c1` [AZD-1080], for which the CC50 was 7.3 µM (active).

For the compound `Cc1cc(Nc2nc(N[C@@H](C)c3ncc(F)cn3)ncc2Cl)n[nH]1` [AZD-1480], the CC50 is 7.9 µM (active).

`Cc1ncc(-c2ccnc(Nc3ccc(S(C)(=O)=O)cc3)n2)n1C(C)C` [AZD-5438]: the CC50 is 0.6 µM (active).

As to `NC(=O)Nc1cc(-c2cccc(F)c2)sc1C(=O)N[C@H]1CCCNC1` [AZD-7762], the CC50 is 0.9 µM (active).

In the case of `COc1ccc(-c2ccc3c(N4CCOC[C@@H]4C)nc(N4CCOC[C@@H]4C)nc3n2)cc1CO` [AZD-8055], the CC50 is 0.1 µM (active).

As to `CN1CCCC(n2nc(Cc3ccc(Cl)cc3)c3ccccc3c2=O)CC1` (stereo unspecified) [AZELASTINE HYDROCHLORIDE], the CC50 was 10 µM (active).

Turning to `CCCCc1nc(-c2ccc(OCCCN(CC)CC)cc2)cn1-c1ccc(Oc2ccc(Cl)cc2)cc1` [AZELIRAGON], the CC50 is 1.2 µM (active).

With `Cc1ccc(NC(=O)c2ccc(CN3CC[C@H](N(C)C)C3)c(C(F)(F)F)c2)cc1Nc1nccc(-c2cncnc2)n1` [BAFETINIB], the CC50 is 0.9 µM (active).

Regarding `CC1(C)CC[C@]2(C(=O)O)CC[C@]3(C)[C@H](C(=O)C=C4[C@@]5(C)C=C(C#N)C(=O)C(C)(C)[C@@H]5CC[C@]43C)[C@@H]2C1` [BARDOXOLONE], the CC50 is 3.7 µM (active).

`Nc1nc(Nc2ccc3c(c2)CC[C@@H](N2CCCC2)CC3)nn1-c1cc2c(nn1)-c1ccccc1CCC2` [BEMCENTINIB]: the CC50 is 1.2 µM (active).

With `COc1ccc2cc3[n+](cc2c1OC)CCc1cc2c(cc1-3)OCO2` [BERBERINE CHLORIDE], the CC50 was 14.4 µM (inactive).

In the case of `CNCc1ccc(-c2cc(-c3nc(-c4ccc(S(=O)(=O)C(C)C)cc4)cnc3N)on2)cc1` [BERZOSERTIB], the CC50 is 2.7 µM (active).

For `CC[C@@H]1C(=O)N(C)c2cnc(Nc3ccc(C(=O)NC4CCN(C)CC4)cc3OC)nc2N1C1CCCC1` [BI-2536], the CC50 was 1.2 µM (active).

`COc1c(C)cnc(Cn2cnc3c(Cl)nc(N)nc32)c1C` [BIIB021]: the CC50 is 0.4 µM (active).

As to `Cn1cnc2c(F)c(Nc3ccc(Br)cc3F)c(C(=O)NOCCO)cc21` [BINIMETINIB], the CC50 was < 0.1 µM (active).

`Cc1sc2c(c1C)C(c1ccc(Cl)cc1)=N[C@@H](CC(=O)Nc1ccc(O)cc1)c1nnc(C)n1-2` [BIRABRESIB]: the CC50 was 1.3 µM (active).

Consider `Oc1c(Cl)cc(Cl)cc1Sc1cc(Cl)cc(Cl)c1O` [BITHIONOL], for which the CC50 is 14.6 µM (inactive).

On to `CC(C)C[C@H](NC(=O)[C@H](Cc1ccccc1)NC(=O)c1cnccn1)B(O)O` [BORTEZOMIB], for which the CC50 is < 0.1 µM (active).

`COc1cc(Nc2c(C#N)cnc3cc(OCCCN4CCN(C)CC4)c(OC)cc23)c(Cl)cc1Cl` [BOSUTINIB]: the CC50 is 1.8 µM (active).

Take `O=c1ccc2ccc(OCCCCN3CCN(c4cccc5sccc45)CC3)cc2[nH]1` [BREXPIPRAZOLE]: the CC50 is 8.4 µM (active).

Regarding `COc1cc(N2CCC(N3CCN(C)CC3)CC2)ccc1Nc1ncc(Cl)c(Nc2ccccc2P(C)(C)=O)n1` [BRIGATINIB], the CC50 was 5.7 µM (active).

For `C[C@@H]1CN(Cc2ccc(F)cc2)CCN1C(=O)COc1ccc(Cl)cc1NC(N)=O` [BX 471 FREE BASE], the CC50 was 4.8 µM (active).

`O=C(NCCCNc1nc(Nc2cccc(NC(=O)N3CCCC3)c2)ncc1I)c1cccs1` [BX-795]: the CC50 is 5.2 µM (active).

Take `COc1cc2nccc(Oc3ccc(NC(=O)C4(C(=O)Nc5ccc(F)cc5)CC4)cc3)c2cc1OC` [CABOZANTINIB]: the CC50 was 9.5 µM (active).

As to `O=C(/C=C/c1ccc(O)c(O)c1)OCCc1ccccc1` [CAFFEIC ACID PHENETHYL ESTER], the CC50 was 4.7 µM (active).

For `CC[C@@]1(O)C(=O)OCc2c1cc1n(c2=O)Cc2cc3ccccc3nc2-1` [CAMPTOTHECIN], the CC50 was 0.2 µM (active).

Turning to `CCOc1nc2cccc(C(=O)OC(C)OC(=O)OC3CCCCC3)c2n1Cc1ccc(-c2ccccc2-c2nnn[nH]2)cc1` (stereo unspecified) [CANDESARTAN CILEXETIL], the CC50 is 10.7 µM (active).

On to `C=CC(=O)Nc1cc2c(Nc3ccc(F)c(Cl)c3)ncnc2cc1OCCCN1CCOCC1` [CANERTINIB], for which the CC50 was 50 µM (inactive).

On to `COc1cc(O)cc(O)c1C(=O)/C=C/c1ccccc1` [CARDAMOMIN], for which the CC50 was 18.3 µM (inactive).

Consider `CN(C)C(=O)N[C@H]1CC[C@H](CCN2CCN(c3cccc(Cl)c3Cl)CC2)CC1` [CARIPRAZINE HYDROCHLORIDE], for which the CC50 was 14.1 µM (active).

As for `COc1cc2c(Oc3ccc4[nH]c(C)cc4c3F)ncnc2cc1OCCCN1CCCC1` [CEDIRANIB], the CC50 was 2.5 µM (active).

Consider `CNC(=O)c1ccccc1Nc1nc(Nc2ccc3c(c2OC)CCC[C@H](N2CCN(CCO)CC2)C3)ncc1Cl` [CEP-37440], for which the CC50 is 0.8 µM (active).

Turning to `Cc1cc(Nc2ncc(Cl)c(Nc3ccccc3S(=O)(=O)C(C)C)n2)c(OC(C)C)cc1C1CCNCC1` [CERITINIB], the CC50 is 0.7 µM (active).

On to `COc1cc2c(cc1OC(C)C)[C@H](c1ccc(Cl)cc1)N(c1ccc(N(C)C[C@H]3CC[C@H](N4CCN(C)C(=O)C4)CC3)cc1)C(=O)C2` [CGM-097], for which the CC50 was 6.3 µM (active).

Take `[H]/N=C(\N/C(=N/[H])NCCCCCCNC(=N)NC(=N)Nc1ccc(Cl)cc1)Nc1ccc(Cl)cc1` [CHLORHEXIDINE]: the CC50 is 4.6 µM (active).

In the case of `CN(C)CCCN1c2ccccc2Sc2ccc(Cl)cc21` [CHLORPROMAZINE HYDROCHLORIDE], the CC50 was 5.4 µM (active).

With `N#CN=C(NCCCCCCOc1ccc(Cl)cc1)Nc1ccncc1` [CHS-828], the CC50 was 0.1 µM (active).

As to `O=C(NOCC1CC1)c1ccc(F)c(F)c1Nc1ccc(I)cc1Cl` [CI-1040], the CC50 was 0.3 µM (active).

`C[C@@H](NCCCc1cccc(C(F)(F)F)c1)c1cccc2ccccc12` [CINACALCET HYDROCHLORIDE]: the CC50 is 5.1 µM (active).

Turning to `C[C@H]1Cc2c([nH]c3cc(Cl)c(F)cc23)[C@@]2(N1)C(=O)Nc1ccc(Cl)cc12` [CIPARGAMIN], the CC50 was 10.8 µM (active).

As for `COc1cc(N)c(Cl)cc1C(=O)NC1CCN(CCCOc2ccc(F)cc2)CC1OC` (stereo unspecified) [CISAPRIDE MONOHYDRATE], the CC50 is 38 µM (inactive).

As to `O=C(CCCCCCNC(=O)c1cnc(N(c2ccccc2)c2ccccc2Cl)nc1)NO` [CITARINOSTAT], the CC50 was 3 µM (active).

In the case of `CN1CCC[C@@H]1CCO[C@](C)(c1ccccc1)c1ccc(Cl)cc1` [CLEMASTINE FUMARATE], the CC50 is 5.4 µM (active).

Consider `CN(C)CCCN1c2ccccc2CCc2ccc(Cl)cc21` [CLOMIPRAMINE HYDROCHLORIDE], for which the CC50 is 6.5 µM (active).

On to `COc1ccc(/C=C\c2cc(OC)c(OC)c(OC)c2)cc1O` [COMBRETASTATIN A4], for which the CC50 is 1.4 µM (inactive).

For the compound `CC1(COc2ccc3c(c2)ncn3-c2ccc3cccc(N4CCC(N)CC4)c3n2)COC1` [CRENOLANIB], the CC50 is 4.4 µM (active).

Turning to `C[C@@H](Oc1cc(-c2cnn(C3CCNCC3)c2)cnc1N)c1c(Cl)ccc(F)c1Cl` [CRIZOTINIB], the CC50 is 2.8 µM (active).

Consider `C[C@H]1COC2=C1C(=O)C(=O)c1c2ccc2c1CCCC2(C)C` [CRYPTOTANSHINONE], for which the CC50 is 3.1 µM (active).

On to `C#Cc1cccc(Nc2ncnc3cc(OC)c(OCCCCCCC(=O)NO)cc23)c1` [CUDC-101], for which the CC50 was 0.5 µM (active).

With `C[C@@H]1C[C@@H]([C@H](O)CC2CC(=O)NC(=O)C2)C(=O)[C@@H](C)C1` [CYCLOHEXIMIDE], the CC50 was 0.4 µM (active).
